Source: patent publication EP4616867A1, “COMBINATION OF ENDOTHELIN RECEPTOR ANTAGONIST AND GLUCOCORTICOID FOR TREATING IGA NEPHROPATHY” (Sanreno Therapeutics (Shanghai) Limited, priority 2022, dated 2024)

System: IgA nephropathy model mice
Experiment: Efficacy of atrasentan, methylprednisolone and combinations in IgA nephropathy model mice (CFA-stimulated humanized IGHA1 mice); blood hIgA1, IgG, IgM
Type: in vivo
Conditions: IgAN mice; for IgG, Difference between pre-treatment and post-treatment value (post-treatment minus pre-treatment), Mean (SD) / IgG, Difference between pre-treatment and post-treatment value (post-treatment minus pre-treatment), Median (Q1 - Q3) / IgM, Difference between pre-treatment and post-treatment value (post-treatment minus pre-treatment), Mean (SD) / IgM, Difference between pre-treatment and post-treatment value (post-treatment minus pre-treatment), Median (Q1 - Q3) / hIgA1, Difference between pre-treatment and post-treatment value (post-treatment minus pre-treatment), Mean (SD) / hIgA1, Difference between pre-treatment and post-treatment value (post-treatment minus pre-treatment), Median (Q1 - Q3): 30 days gavage; for IgG, After treatment, Mean (SD) / IgG, After treatment, Median (Q1 - Q3) / IgM, After treatment, Mean (SD) / IgM, After treatment, Median (Q1 -Q3) / hIgA1, After treatment, Mean (SD) / hIgA1, After treatment, Median (Q1 - Q3): after 30 days gavage, atrasentan 15 mg/kg/day, methylprednisolone 5 mg/kg/day, dapagliflozin 1 mg/kg/day; for IgG, Before treatment, Mean (SD) / IgG, Before treatment, Median (Q1 - Q3) / IgM, Before treatment, Mean (SD) / IgM, Before treatment, Median (Q1 - Q3) / hIgA1, Before treatment, Mean (SD) / hIgA1, Before treatment, Median (Q1 - Q3): baseline before dosing
Excerpt: The present invention will be further described below through examples, but the examples are not meant to limit the scope of the present invention in any way. For the measurement methods of various parameters in the examples, reference should be made to Wan F, Wang H, Wang M, Lü J, Zhao M, Zhang H. Sustained release of Lactobacillus casei cell wall extract can induce a continuous and stable IgA deposition model. […] Chimeric Fusion between Clostridium Ramosum IgA Protease and IgG Fc Provides Long-Lasting Clearance of IgA Deposits in Mouse Models of IgA Nephropathy. […] The above-mentioned documents are incorporated into this application in their entirety. […] Complete Freunds adjuvant (CFA) and phosphate buffer solution (PBS) were mixed thoroughly and emulsified at a ratio of 1:1 to obtain a CFA injection that was intraperitoneally injected into 8-week-old humanized IGHA1 mice constructed in step 1. Four times the mouse body weight (4w μl) was injected every 2 weeks, administering a total of 6 injections over a time period of about 2.5 months. • 2. In this experiment, the 8-week-old humanized IgA1 mice underwent an induction period of 2 to 5 months after the final injection of CFA. Table 1 […] Each group received intraperitoneal injections of CFA injection to create a model. Upon model completion, atrasentan, methylprednisolone and/or dapagliflozin were administered as outlined below. The control group was administered an equal amount of solvent (an aqueous solution of 0.5% (w/v) methylcellulose and 0.5% (v/v) Tween 80) by gavage for 30 days. Dosing method: atrasentan (15 mg/kg/day), methylprednisolone (5 mg/kg/day), dapagliflozin (1 mg/kg/day) were administered by gavage every morning for 30 days. When co-administered, the required medicines were mixed together in the appropriate proportion (the dose of each medicine was calculated according to mouse body weight) before administration by gavage. […] Prior to dosing, once every 2 weeks during the dosing period, and on day 30 of dosing, urine creatinine, urine protein level, and albumin to creatinine ratio (ACR) were measured, and the mice checked for the presence of haematuria. Prior to dosing and on day 30 of dosing, renal tissue pathology was scored according to the Oxford classification system, IgA and C3 deposition in renal tissue was measured by immunofluorescence assay, and mice in each group were examined for cardiac pathology.

Row | Compound | IgG, Difference between pre-treatment and post-treatment value (post-treatment minus pre-treatment), Mean (SD) | IgG, Difference between pre-treatment and post-treatment value (post-treatment minus pre-treatment), Median (Q1 - Q3) | IgM, Difference between pre-treatment and post-treatment value (post-treatment minus pre-treatment), Mean (SD) | IgM, Difference between pre-treatment and post-treatment value (post-treatment minus pre-treatment), Median (Q1 - Q3) | hIgA1, Difference between pre-treatment and post-treatment value (post-treatment minus pre-treatment), Mean (SD) | hIgA1, Difference between pre-treatment and post-treatment value (post-treatment minus pre-treatment), Median (Q1 - Q3) | IgG, After treatment, Mean (SD) | IgG, After treatment, Median (Q1 - Q3) | IgM, After treatment, Mean (SD) | IgM, After treatment, Median (Q1 -Q3) | hIgA1, After treatment, Mean (SD) | hIgA1, After treatment, Median (Q1 - Q3) | IgG, Before treatment, Mean (SD) | IgG, Before treatment, Median (Q1 - Q3) | IgM, Before treatment, Mean (SD) | IgM, Before treatment, Median (Q1 - Q3) | hIgA1, Before treatment, Mean (SD) | hIgA1, Before treatment, Median (Q1 - Q3)
1 | CCCCN(CCCC)C(=O)CN1C[C@H](c2ccc3c(c2)OCO3)[C@@H](C(=O)O)[C@@H]1c1ccc(OC)cc1 [Atrasentan (A), atrasentan] | 1.69(0.35) | 1.58(1.11 - 2.23) | 0.54(0.23) | 0.38(0.07 - 0.69) | 5.95 (1.50) | 4.96 (3.03 - 8.99) | 5.04(0.10) | 5.06(4.74 - 5.25) | 2.08(0.45) | 1.72(1.28 - 2.26) | 15.99( 3.40) | 12.99 (7.93 - 23.80) | 3.35(0.36) | 3.32(2.90 - 4.14) | 1.55(0.25) | 1.31(1.02 - 1.97) | 10.04 (2.46) | 7.88(4. 24 - 16.39)
2 | C[C@H]1C[C@@H]2[C@H]([C@@H](O)C[C@@]3(C)[C@H]2CC[C@]3(O)C(=O)CO)[C@@]2(C)C=CC(=O)C=C12 [Methylprednisolone (MP), methylprednisolone] | -0.10(0.20) | -0.09(-0.28 - 0.39) | -0.04(0.08) | -0.05(-0.12 - 0.13) | -0.03( 0.70) | -0.11 (-1.97 - 2.12) | 4.75(0.81) | 3.56(3.22 - 7.06) | 1.51(0.33) | 1.08(0.80 - 2.34) | 6.63(0 .79) | 6.23( 4.78 - 8.97) | 4.85(0.94) | 3.75(3.04 - 7.83) | 1.55(0.28) | 1.31(0.90 - 2.22) | 6.66( 0.37) | 6.69(6. 12 - 7.53)
